{
  "source": "patent US20170312219A1",
  "about": "“METHOD OF CONTRACEPTION” (Bayer Oy, priority 2008, published 2017)",
  "tested_on": "adult cycling cynomolgus macaques",
  "test": "animal model of intrauterine bleeding: IUS inserted in macaques, daily vaginal swabs scored for bleeding",
  "type": "in vivo",
  "conditions": "Group 1: IUS releasing 2 μg per day of levonorgestrel, 9 monkeys",
  "procedure": "The effects of administering via an intrauterine system (IUS) levonorgestrel alone, or in combination with indomethacin, were tested in animal model of intrauterine bleeding. The study was conducted using three groups of adult cycling cynomolgus macaques. The macaques were monitored to record regular menstrual cycles. Scheduled (menses) and unscheduled uterine bleeding and spotting was assessed daily by vaginal swabs, and menstrual blood loss was quantified by vaginal tampons.\nAfter about two menstrual cycles (about 60 days), the macaques were assigned to three separate groups and laparotomized on days 6-9 of the follicular phase. For each macaque, an IUS was inserted by hysterotomy into the uterine lumen and sutured in place. Group 1 included 9 monkeys that were given an IUS that released 2 μg per day of levonorgestrel. Group 2 included 8 monkeys that were given an IUS that released 2 μg per day of levonorgestrel and 10 μg per day of indomethacin. Group 3 included 7 monkeys that were given an IUS that released 2 μg per day of levonorgestrel and 30 μg per day of indomethacin.\nThe frequency and type of bleeding was assessed by daily vaginal swabs. FIGS. 9A-9B illustrate the results of the different types of bleedings. Gray-shaed cells represent positive swab or frank menses, which is the most heavy form of bleeding. Diagonal-lined cells represent light positive swab, which is an intermediated type of bleeding.\nThe gray-shaded cells that were assigned represent the heaviest form of bleeding were assigned a score of 2. The diagonal-lined cells represent an intermediate type of bleeding and were assigned a score of 1.\nFor evaluation of bleeding days, the first 7 days after insertion of the IUS were neglected, since the insertion procedure by surgery causes some bleeding that is unrelated to treatment effects. FIGS. 9A-9B include data for a period of 80 days after the IUS was inserted in each of the macaques.",
  "key": {"[1]": {"conditions": "80 days after insertion, first 7 days neglected"}},
  "data": [
    {"smiles": "C#C[C@]1(O)CC[C@H]2[C@@H]3CCC4=CC(=O)CC[C@@H]4[C@H]3CC[C@@]21CC", "note": "[levonorgestrel]", "values": [
      {"measurement": "average score for each of the macaques (heaviest bleeding = 2, intermediate = 1)", "result": 11.9},
      {"measurement": "total score for all of the macaques (heaviest bleeding = 2, intermediate = 1)", "result": 107},
      {"measurement": "average number of bleeding days per macaque", "setting": "[1]", "result": 8.6, "unit": "days"},
      {"measurement": "total number of bleeding days", "setting": "[1]", "result": 77, "unit": "days"}
    ]}
  ]
}
